From article PMC6271476, “Synthesis, Anticancer Activity and UPLC Analysis of the Stability of Some New Benzimidazole-4,7-dione Derivatives” (Molecules, 2013)
Where two headings read alike, the source gives them in different places.

Experiments:
[1] = system: human lung adenocarcinoma A549 cells; assay: WST-1 cell viability assay, growth inhibition of A549 cells under normoxia and hypoxia; details: for inhibition of the cell growth / decrease of cell viability compared to control cells: compound at 10 µM, 48 h; for Differential cytotoxicity O/H (hypoxic/aerobic cytotoxicity coefficient): ratio IC50 normoxia / IC50 hypoxia, A549
Description: (§1) The human lung adenocarcinoma A549 cell line, purchased from Health Protection Agency Culture Collections (ECACC, Salisbury, UK), was cultured in F12K medium (HyClone, Loughborough, UK) supplemented with 10% heat-inactivated foetal bovine serum (FBS), penicillin (10 U/mL) and streptomycin (10 µg/mL) in air with 5% CO2 at 37 °C. Hypoxic cells were obtained by culturing in a hypoxic incubator in 1% O2 and 5% CO2 at 37 °C for 24 h before treatment.
(§2) In order to determine the anticancer activity of the analysed compounds we evaluated the cell viability using THE WST-1 assay (Millipore, Billerica, MA, USA) according to the manufacturer’s instructions.
(§3) The absorbance was determined at 420 nm using a microplate reader (Synergy H1, Bio-Tek, Winooski, VT, USA) after 3 h of incubation at 37 °C.
(§4) In order to determine the anticancer activity of the analysed compounds we evaluated the cell viability using the WST-1 assay, which is based on the conversion of the tetrazolium salt WST-1 to formazan by cellular mitochondrial dehydrogenases. Therefore, the amount of formazan dye formed directly correlates with the number of live cells in the culture.
(§5) A549 cells were seeded in 96-well plates at a density of 5,000 cells/well and cultured under normoxic conditions. To investigate the effect of compounds on hypoxic cancer cells, A549 cells were exposed to hypoxia (1% O2) for 24 h before treatment. […] Normoxic and hypoxic cells were treated with different concentrations of the tested compounds or vehicle (0.2% DMSO) for control cells. The cell viability was assessed after a 48 h incubation under normoxic or hypoxic conditions with the compounds. Briefly, WST-1 reagent was added to the cells and the percentage (%) of cell viability related to control cells was calculated by the expression [A] test/[A] control × 100 where [A] test is the absorbance of the cells treated with compounds and [A] control is the absorbance of control cells.

[2] = system: human lung adenocarcinoma A549 cells
Description: as §1, §2, §3, §4, §5

[3] = Stability (degradation kinetics, recovery) in different solvent environments by RP-UPLC; format: physicochemical; details: for half-life at 0.1 mg/mL: read-out: degradation t1/2 (converted)
Description: Chromatographic purification was performed on silica gel plates (Merck F254, Darmstadt, Germany) with the indicated eluents. Chemicals and solvents were obtained from commercial sources. The UPLC system consisted of an Acquity Ultra Performance LC Waters H-class system (Waters, Corporation, Milford, MA, USA). Chromatographic separation was achieved on an Acquity UPLC HSS T3 column (1.8 µm × 2.1 × 50 mm). The chromatographic peaks were identified with the Waters PDA eλ Acquity UPLC Detector. Compound 5b was monitored at a wavelength of 261 nm and compound 6b at 289 nm. All chromatographic experiments were performed in an isocratic mode. The mobile phase consisted of a mixture of solvents of chromatographic purity, acetonitrile/buffer (30:70 v/v). Buffer was a 0.01 M mixture of ammonium formate and formic acid pH = 2.4. The flow rate was set to 0.5 mL/min and the oven temperature to 25 °C. Compound samples were weighed on analytical scales with an accuracy of 0.01 mg. All the samples were prepared in 5, 10 and 25 mL volumetric flasks. Solution volume injections of 1.5 µL were performed with the use of an autosampler. Each sample was analysed three times and the run time analysis was five minutes. All solutions were filtered through a 0.45 µm membrane filter. The final result was presented as an arithmetical mean. The control of the UPLC system and detection was achieved by the Empower 3 Waters® software. Solvents for UPLC analysis were of UPLC grade and obtained from J. T. Baker (Center Valley, PA, USA). The method was validated in terms of precision, accuracy, specificity, detectability, and stability for compounds 5b and 6b.
Stability: Each medium (1 mL, 0.2% DMSO, water, 0.9% NaCl, and HCl pH = 1.5) was added to 10 mL volumetric flasks containing products 5b and 6b (1 mg). The flasks were filled up with the mobile phase. Each solution was analysed at t0 and after 6, 24, 48, and 72 h. The obtained calibration curve was used for the determination of degradation kinetics of the compounds in the solvents. The degradation kinetic parameters: rate constant (k) and t1/2 (half-life) were calculated with the use of Equation (3), where c0 is the concentration at time zero, c is the remaining concentration, k is the rate constant (h^−1) and t is the time (h): […]

[4] = as above; format: physicochemical; details: for half-life at 0.1 mg/mL: read-out: degradation t1/2 (converted); remark: listed apart in the source
[5] = read-out: IC50 A549 Hypoxia (H), A549 cells, hypoxia (1% O2, 24 h before treatment and during culture), 48 h incubation, WST-1, mean ± SD, n = 3
[6] = read-out: IC50 A549 Normoxia (O), A549 cells, normoxia, 48 h incubation, WST-1, mean ± SD, n = 3
[7] = Homo sapiens, A549, 48 h, read-out: IC50 A549 Normoxia (O), A549 cells, normoxia, 48 h incubation, WST-1, mean ± SD, n = 3
[8] = Homo sapiens, A549, read-out: IC50 A549 Hypoxia (H), A549 cells, hypoxia (1% O2, 24 h before treatment and during culture), 48 h incubation, WST-1, mean ± SD, n = 3

Compound: 2-(4-Chlorophenyl)-1H-benzimidazol-4,7-dione N-oxide [Compound 6a]
- inhibition of the cell growth / decrease of cell viability compared to control cells ([1]; normoxia): 20%
- IC50 [1, 5]: 35 ± 1.6 µM
- IC50 [1, 6]: 116 ± 1.9 µM
- Differential cytotoxicity O/H (hypoxic/aerobic cytotoxicity coefficient) [2]: 3.28

Compound: O=C1C=CC(=O)c2[nH]c(-c3ccc(Cl)cc3)nc21 [Compound 5a, 2-(4-Chlorophenyl)-1H-benzimidazol-4,7-dione]
- IC50 [1, 7]: 30.2 ± 1.2 µM
- IC50 [1, 8]: 36.1 ± 1.2 µM
- inhibition of the cell growth / decrease of cell viability compared to control cells ([1]; normoxia): approximately 33%
- Differential cytotoxicity O/H (hypoxic/aerobic cytotoxicity coefficient) [1]: 0.83

Compound: O=C1C=CC(=O)c2[nH]c(-c3ccccc3[N+](=O)[O-])nc21 [Compound 5b, 2-(2-Nitrophenyl)-1H-benzimidazol-4,7-dione]
- degradation rate constant k ([3]; 0.2% DMSO): 0.0002 h⁻¹
- half-life at 0.1 mg/mL ([3]; 0.2% DMSO): 215 h
- degradation rate constant k ([3]; 0.9% NaCl): 0.0004 h⁻¹
- half-life at 0.1 mg/mL ([3]; 0.9% NaCl): 155 h
- degradation ([3]; water, up to 72 h): did not suffer any degradation
- half-life at 0.1 mg/mL ([3]; water, H2O): > 72 h
- IC50 [1, 7]: < 100 µM
- IC50 [1, 8]: 47.4 ± 1.1 µM
- Differential cytotoxicity O/H (hypoxic/aerobic cytotoxicity coefficient) [1]: 2.13
- IC50 [1, 6]: 100 ± 1.8 µM
- half-life at 0.1 mg/mL ([4]; MeOH): > 72 h
- degradation ([4]; methanol, up to 72 h): did not suffer any degradation

Compound: O=C1C=CC(=O)c2[nH]c(-c3ccc4c(c3)OCO4)nc21 [Compound 5c, 2-Benzo[1,3]dioxol-1H-benzimidazol-4,7-dione]
- IC50 [1, 7]: 80.9 ± 1.9 µM
- IC50 [1, 8]: 51.2 ± 1.5 µM
- Differential cytotoxicity O/H (hypoxic/aerobic cytotoxicity coefficient) [1]: 1.58

Compound: O=C1C=CC(=O)c2[nH]c(-c3ccc4ccccc4c3)nc21 [Compound 5d, 2-Naphthyl-1H-benzimidazol-4,7-dione]
- Differential cytotoxicity O/H (hypoxic/aerobic cytotoxicity coefficient) [1]: 2.06
- IC50 [1, 5]: 232.4 ± 1.4 µM

Compound: O=C1C=CC(=O)c2c1[nH]c(-c1ccccc1[N+](=O)[O-])[n+]2[O-] [Compound 6b, 2-(2-Nitrophenyl)-1H-benzimidazol-4,7-dione N-oxide]
- degradation rate constant k ([3]; 0.2% DMSO): 0.00009 h⁻¹
- half-life at 0.1 mg/mL ([3]; 0.2% DMSO): 413 h
- degradation rate constant k ([3]; 0.9% NaCl): 0.0004 h⁻¹
- half-life at 0.1 mg/mL ([3]; 0.9% NaCl): 142 h
- degradation rate constant k ([3]; H2O): 0.0004 h⁻¹
- half-life at 0.1 mg/mL ([3]; water, H2O): 146 h
- IC50 [1, 8]: 116 ± 0.8 µM
- Differential cytotoxicity O/H (hypoxic/aerobic cytotoxicity coefficient) [1]: 4.31
- degradation rate constant k ([4]; MeOH): 0.0002 h⁻¹
- half-life at 0.1 mg/mL ([4]; MeOH): 161 h

Compound: O=C1C=CC(=O)c2c1[nH]c(-c1ccc3c(c1)OCO3)[n+]2[O-] [Compound 6c, 2-Benzo[1,3]dioxol-1H-benzimidazol-4,7-dione N-oxide]
- IC50 [1, 7]: 79.5 ± 1.9 µM
- IC50 [1, 8]: 44 ± 2.5 µM
- Differential cytotoxicity O/H (hypoxic/aerobic cytotoxicity coefficient) [1]: 1.80

Compound: O=C1C=CC(=O)c2c1[nH]c(-c1ccc3ccccc3c1)[n+]2[O-] [Compound 6d, 2-Naphthyl-1H-benzimidazol-4,7-dione N-oxide]
- Differential cytotoxicity O/H (hypoxic/aerobic cytotoxicity coefficient) [1]: 2.62
- IC50 [1, 5]: 96.8 ± 1.9 µM

Compound: Nc1n[n+]([O-])c2ccccc2[n+]1[O-] [Tirapazamine, reference compound]
- IC50 [1, 7]: 166 µM
- IC50 [1, 8]: 30 ± 1.5 µM
- IC50 [1, 6]: 166.2 ± 1.6 µM
